Experimental data reported in patent US7279161B2, “Factor IX/factor IXa activating antibodies and antibody derivatives” (Baxter Aktiengesellschaft, priority 1999, dated 2007).
Entries after “also recorded” stand apart in the source; their conditions may differ. One block for each sequence: values may come before it.

Assays:
FVIII deficient plasma = assay: aPTT based one stage clotting assay in FVIII deficient plasma; type: biochemical, human; conditions: for one-stage clotting time (printed in brackets after 'strong reduction' / 'strongly active'): 2.2 nM human FIXa
Experimental: During normal hemostasis, FIX becomes initially activated either by the tissue factor (TF)/factor VIIa pathway or later on by activated factor XI (FXIa). Subsequent to its activation, FIXa associates on the platelet surface in a membrane bound complex with activated FVIII. […] Different amounts of antibody 193/AD3 or mouse IgG (as a control) were used in a standard aPTT based one stage clotting assay. Briefly, 100 μl of antibody-containing samples were incubated with 100 μl of FVIII deficient plasma (DP) and with 100 μl of DAPTTIN (PTT Reagent for determining activated Thromboplastin Time; IMMUNO AG) reagent, in a KC10A clotting analyzer. Where indicated, a total amount of 50 ng activated FIX was included in the reaction mixture. After a 4 minute incubation, the reaction was started by the addition of 100 μl CaCl2 (25 mM).
The peptides were also analyzed for their potential to reduce the clotting time in a FVIII deficient plasma. The aPTT based one stage clotting assay was essentially done as described (see example 6). Clotting times (time from starting the reaction to the “clot”-formation were compared either against FVIII, a buffer control (IZ) or a control peptide (scrambled version). The results of two typical clotting experiments done with two different aPTT reagents (DAPTTIN and Pathromtin SL) are shown in table 3A and table 3B.

human FIXa = biological target: T1, human FIXa (Homo sapiens, UniProt P00740); assay: Chromogenic FVIII-like (FXa generation) assay with human FIXa added; type: biochemical
T1 construct: with (+) and without (−) addition of 50 ng human FIXaβ; purchased ERL (Enzyme Research Laboratories)
Experimental: The chromogenic activity of these antibody preparations was measured in the following FXa generation kinetic assay: 10 μg of monoclonal antibody (in 25 μl) were transferred to microtiter plate wells and warmed to 37° C. Chromogenic substrate (S-2222), synthetic thrombin inhibitor (I-2581), factor IXa and FX were reconstituted in sterile water and FIXa/FX (both bovine) were mixed with phospholipids according to the supplier's protocol. Per reaction, 50 μl of the phospholipid/FIXa/FX solution were combined with 25 μl CaCl2 (25 mM) and 50 μl of the substrate/inhibitor cocktail. To start the reaction, 125 μl of the premix were added to the monoclonal antibody solution in the microtiter plates and incubated at 37° C. Absorbance at 405 nm and 490 nm of the samples was read at various times (5 min to 2 h) against a reagent blank ([…] TBS instead of monoclonal antibodies) in a Labsystems iEMS Reader MF™ microtiter plate reader using GENESIS™ software. In parallel, the same reactions were performed except that 50 ng human FIXa were added per reaction.
To analyze the FVIII-like (FIXa activating) activity of the peptides, an assay system based on a commercial available FVIII assay was developed (see examples 2 and 4). The basic principle is, that without a cofactor, FIXa will have very limited activity towards its natural substrate FX. […] The amount of FXa generated is monitored by cleavage of a chromogenic substrate. The principle of the revised chromogenic assay is described for two representative peptides: A1/3 and A1/5 (Table 2). Briefly, 25 μl aliquots of peptide stock solution (in imidazole buffer (IZ) 50 mM imidazole, 100 mM NaCl, pH 7.2) were transferred to microtiter plate wells and warmed to 37° C. Chromogenic FXa substrate (S-2222), synthetic thrombin inhibitor (I-2581), bovine FIXa and bovine FX were reconstituted in sterile water and FIXa/FX mixed with phospholipids according to the supplier's protocol. […] Per reaction, 50 μl of the phospholipid/FIXa/FX solution were combined with 25 μl CaCl2 (25 mM) and 50 μl of the substrate/inhibitor cocktail. To start the reaction, 125 μl of the premix were added to the peptide solution in the microtiter plate and incubated at 37° C. Absorbance at 405 nm and 490 nm of the samples was read at various times (5 min to 2 h) against a reagent blank in a Labsystems iEMS Reader MF™ microtiter plate reader using GENESIS™ software.

[1] = in the presence of 2.2 nM human FIXa
[2] = 12.5 nM peptide, (+) presence of activated human FIX
[3] = 12.5 nM peptide, (−) absence of activated human FIX
[4] = 0.125 μM peptide, (+) presence of activated human FIX
[5] = 0.125 μM peptide, (−) absence of activated human FIX
[6] = 1.25 μM peptide, (+) presence of activated human FIX
[7] = 1.25 μM peptide, (−) absence of activated human FIX
[8] = 12.5 μM peptide, (+) presence of activated human FIX
[9] = 12.5 μM peptide, (−) absence of activated human FIX

chromogenic activity (human FIXa; Alanine scan): high chromogenic activity
Sequence: RRREGAGYYVNWYFDRRR [A1/3-2]
one-stage clotting time (printed in brackets after 'strong reduction' / 'strongly active') (FVIII deficient plasma; 12.5 μM): 34 s
one-stage clotting activity (FVIII deficient plasma; [1]): strong reduction of the one-stage clotting time

final concentration of optimum chromogenic activity (human FIXa): ~12 µM
Sequence: RRREGGAYYVNWYFDRRR [A1/3-3]
one-stage clotting time (printed in brackets after 'strong reduction' / 'strongly active') (FVIII deficient plasma; 12.5 μM): 31 s
one-stage clotting activity (FVIII deficient plasma; higher concentrations (12.5 μM), absence of FIXa): somewhat inhibitory
one-stage clotting activity (FVIII deficient plasma; [1]): strongly active

chromogenic FVIII-like activity at higher concentrations (human FIXa; up to 24 μM): lost activity
Sequence: RRREGGEYYVNWYFDRRR [A1/3-24]
procoagulant activity (FVIII deficient plasma; absence of human FIXa): no procoagulant activity
one-stage clotting activity (FVIII deficient plasma; [1]): strongly active

Sequence: RRREGGGFTVNWYFDRRR [B1/7]
clotting time (FVIII deficient plasma; [2]): 99 s
clotting time (FVIII deficient plasma; [3]): 110 s
clotting time (FVIII deficient plasma; [4]): 99 s
clotting time (FVIII deficient plasma; [5]): 109 s
clotting time (FVIII deficient plasma; [6]): 92 s
clotting time (FVIII deficient plasma; [7]): 112 s
clotting time (FVIII deficient plasma; [8]): 83 s
clotting time (FVIII deficient plasma; [9]): 157 s
FIXa activating activity (generation of FXa) (human FIXa; 2.4 μM peptide, 2.3 nM human FIXa): well measurable generation of FXa; also recorded: measureable generation of Fxa
FXa generation without FIXa and FX (human FIXa; 2.4 μM peptide, w/o FIXa/FX): no FXa was synthesized; also recorded: no reaction is detectable

FIXa activating activity in chromogenic assay (human FIXa; data not shown): no activity
Sequence: RRRFGVGYGETNFDWRRR [B1/7scr3]
clotting time (FVIII deficient plasma; [2]): 94 s
clotting time (FVIII deficient plasma; [3]): 105 s
clotting time (FVIII deficient plasma; [4]): 94 s
clotting time (FVIII deficient plasma; [5]): 106 s
clotting time (FVIII deficient plasma; [6]): 94 s
clotting time (FVIII deficient plasma; [7]): 105 s
clotting time (FVIII deficient plasma; [8]): 102 s
clotting time (FVIII deficient plasma; [9]): 115 s

Sequence: RRRGEYGVYWNGDFYRRR [A1/3-scr3]
average clotting time (FVIII deficient plasma; Table 3A Exp. 1, DAPTTIN, 2.5 μM, 2.2 nM FIXa): 96 s
clotting time (FVIII deficient plasma; Table 3A Exp. 1, DAPTTIN, 2.5 μM, 2.2 nM FIXa, duplicate 1): 96.3 s
clotting time (FVIII deficient plasma; Table 3A Exp. 1, DAPTTIN, 2.5 μM, 2.2 nM FIXa, duplicate 2): 95.2 s
average clotting time (FVIII deficient plasma; Table 3A Exp. 1, DAPTTIN, 2.5 μM, w/o FIXa): 108 s
clotting time (FVIII deficient plasma; Table 3A Exp. 1, DAPTTIN, 2.5 μM, w/o FIXa, duplicate 1): 107.8 s
clotting time (FVIII deficient plasma; Table 3A Exp. 1, DAPTTIN, 2.5 μM, w/o FIXa, duplicate 2): 107.4 s
average clotting time (FVIII deficient plasma; Table 3A Exp. 1, DAPTTIN, 7.5 μM, 2.2 nM FIXa): 101 s
clotting time (FVIII deficient plasma; Table 3A Exp. 1, DAPTTIN, 7.5 μM, 2.2 nM FIXa, duplicate 1): 100.8 s
clotting time (FVIII deficient plasma; Table 3A Exp. 1, DAPTTIN, 7.5 μM, 2.2 nM FIXa, duplicate 2): 100.6 s
average clotting time (FVIII deficient plasma; Table 3A Exp. 1, DAPTTIN, 7.5 μM, w/o FIXa): 114 s
clotting time (FVIII deficient plasma; Table 3A Exp. 1, DAPTTIN, 7.5 μM, w/o FIXa, duplicate 1): 114.2 s
clotting time (FVIII deficient plasma; Table 3A Exp. 1, DAPTTIN, 7.5 μM, w/o FIXa, duplicate 2): 113.9 s
average clotting time (FVIII deficient plasma; Table 3A Exp. 1, DAPTTIN, 12.5 μM, 2.2 nM FIXa): 104 s
clotting time (FVIII deficient plasma; Table 3A Exp. 1, DAPTTIN, 12.5 μM, 2.2 nM FIXa, duplicate 1): 103.1 s
clotting time (FVIII deficient plasma; Table 3A Exp. 1, DAPTTIN, 12.5 μM, 2.2 nM FIXa, duplicate 2): 104.5 s
average clotting time (FVIII deficient plasma; Table 3A Exp. 1, DAPTTIN, 12.5 μM, w/o FIXa): 117 s
clotting time (FVIII deficient plasma; Table 3A Exp. 1, DAPTTIN, 12.5 μM, w/o FIXa, duplicate 1): 116 s
clotting time (FVIII deficient plasma; Table 3A Exp. 1, DAPTTIN, 12.5 μM, w/o FIXa, duplicate 2): 117.6 s
average clotting time (FVIII deficient plasma; Table 3A Exp. 1, DAPTTIN, 15 μM, 2.2 nM FIXa): 106 s
clotting time (FVIII deficient plasma; Table 3A Exp. 1, DAPTTIN, 15 μM, 2.2 nM FIXa, duplicate 1): 106.1 s
clotting time (FVIII deficient plasma; Table 3A Exp. 1, DAPTTIN, 15 μM, 2.2 nM FIXa, duplicate 2): 105.5 s
average clotting time (FVIII deficient plasma; Table 3A Exp. 1, DAPTTIN, 15 μM, w/o FIXa): 122 s
clotting time (FVIII deficient plasma; Table 3A Exp. 1, DAPTTIN, 15 μM, w/o FIXa, duplicate 1): 122.5 s
clotting time (FVIII deficient plasma; Table 3A Exp. 1, DAPTTIN, 15 μM, w/o FIXa, duplicate 2): 122 s
chromogenic FVIII-like activity (FXa generation) (human FIXa; 2.9 nM human FIXa): did not give any significant chromogenic activity
